What was measured:
Assay type in all cases: functional
[1] = system: Staphylococcus aureus; test: Antibacterial activity against Staphylococcus aureus ATCC 2943 assessed as growth inhibition after 16-24 hr by two-fold serial dilution method
[2] = system: Brevundimonas diminuta; test: Antibacterial activity against Brevundimonas diminuta MTCC 3361 assessed as growth inhibition after 16-24 hr by two-fold serial dilution method
[3] = system: Escherichia coli; test: Antibacterial activity against Escherichia coli ATCC 13607 assessed as growth inhibition after 16-24 hr by two-fold serial dilution method
[4] = system: Bacillus subtilis; test: Antibacterial activity against Bacillus subtilis ATCC 6633 assessed as growth inhibition after 16-24 hr by two-fold serial dilution method

SMILES	-logMIC [1]	-logMIC [2]	-logMIC [3]	-logMIC [4]
CC(=O)C1(/N=N/c2ccc([N+](=O)[O-])cc2)N=C1C (configuration not stated)	4.492	4.287	4.253	4.221
CC(=O)C1(/N=N/c2ccccc2)N=C1C (configuration not stated)	4.032	4.024	–	4.026
CC(=O)C1(/N=N/c2ccccc2Cl)N=C1C (configuration not stated)	4.317	4.354	–	4.348
CC(=O)C1(/N=N/c2cccc(Cl)c2)N=C1C (configuration not stated)	4.324	4.325	–	4.315
CC(=O)C1(/N=N/c2ccc(Cl)cc2)N=C1C (configuration not stated)	4.014	4.096	–	4.078
COc1ccccc1/N=N/C1(C(C)=O)N=C1C (configuration not stated)	4.119	4.072	–	4.056
COc1cccc(/N=N/C2(C(C)=O)N=C2C)c1 (configuration not stated)	4.328	4.377	–	4.366
CC(=O)C1(/N=N/c2ccccc2C)N=C1C (configuration not stated)	4.339	–	4.378	4.378
CC(=O)C1(/N=N/c2cccc(C)c2)N=C1C (configuration not stated)	4.298	–	–	4.213
CC(=O)C1(/N=N/c2ccc(C)cc2)N=C1C (configuration not stated)	4.178	–	–	4.298
CC(=O)C1(/N=N/c2cccc(Br)c2)N=C1C (configuration not stated)	4.457	–	4.441	4.425
CC(=O)C1(/N=N/c2ccc(Br)cc2)N=C1C (configuration not stated)	4.433	–	4.414	4.401
CC(=O)C1(/N=N/c2cccc(C(=O)O)c2)N=C1C (configuration not stated)	4.178	4.138	4.223	4.446
CC(=O)C1(/N=N/c2ccc(C(=O)O)cc2)N=C1C (configuration not stated)	4.358	4.243	4.341	4.376
CC(=O)C1(/N=N/c2cccc([N+](=O)[O-])c2)N=C1C (configuration not stated)	4.421	4.336	4.257	4.245
